# Read-outs that look alike come from different tables or passages of the source.
# Assays:
# hORL1 receptor = hORL1 receptor (Homo sapiens, UniProt P41146); test: Inhibition of forskoline-induced cAMP formation in HEK293 cells expressing human ORL1; format: cell-based; set-up: expressed in transfected cells; host or cells: HEK293; details: transfected HEK293 cells
# [1] = tested on: nociceptin-induced smooth muscle relaxation in mouse vas deferens; test: Mouse vas deferens assay: antagonism of nociceptin-induced relaxation (Schild pA2)
# Method: (§1) The vas deferens from male NMRI albino mice weighing 30-40 g were placed in a SCHULER organ bath Type 809, Hugo Sachs Elektronik, Germany, and perfused with a 37° C., modified Krebs solution (NaCl 6,9 g/L, KCl 0.35 g/L, KH2PO4 0.16 g/L, NaHCO3 2.1 g/L, Glucose H2O 2.0 g/L, CaCl2 2.52 mL/L). The solution was gassed with carbogen (95% O2 and 5% CO2) throughout the experiment. The tissue was electrically stimulated through two silver electrodes directly in the organ bath using a HSE Stimulator I Type 215. Stimulation of the tissue was performed by applying a supramaximal voltage (15 Volts) in trains of 10 square pulses every 60 s, each of 1 ms duration with a frequency of […]. Concentration-response curves were performed by adding test substances that relax mouse vas deferens smooth muscles cumulatively to the organ baths. The test substances used in the assay were nociceptin in an isotonic saline solution, Compound 1 (as the trifluoroacetate in an isotonic saline solution), Compound 2 (as the trifluoroacetate in an isotonic saline solution), and the hexapeptide Ac-RYYRWK-NH2 (SEQ ID NO: 1) (as the trifluoroacetate in an isotonic saline solution).
# The effects of Ac-RYYRWK-NH2 (SEQ ID NO: 1) and Compound 1 on nociceptin-induced relaxation in the mouse vas deferens assay were also tested. […] Using the Schild equation ^[7], the pA2 values which indicates affinity of a compound as an antagonist were calculated.
# mouse vas deferens = test: Mouse vas deferens assay: inhibition of electrically-induced contraction; details: cumulative addition; data not shown
# Source text: The compounds of the present invention are pharmacologically active, e.g. as nociceptin agonists or partial agonists, and a useful method of showing activity is described by Hughes J., Kosterlitz H. W., Leslie F. M.: Effect of morphine on adrenergic transmission in the mouse vas deferens. Assessment of agonist and antagonist potencies of narcotic analgesics^[4]. The isolated electrically stimulated mouse vas deferens preparation has been widely used to evaluate the functional pharmacological actions of opioid agonists and antagonists in vitro^[5].
# as §1
# [2] = In vitro stability in heparinised human plasma; format: in vitro ADME
# Method: In addition, the degradation of Compound 1 of the invention has been studied in heparinised human plama.
# The stability of peptides is analysed in human plasma. The peptides are incubated at 37° C. in plasma and samples taken at approx. 8 regular intervals between t=0 and t=390 min for Compound 1 and nociceptin-NH2, and at 9 intervals between t=0 and t=32 min for Compound CE1 are analysed by HPLC. […] This is done by subsequent injections of the drug, plasma, and a co-injection with the drug and the plasma, followed by optimisation of the LC method parameters until a satisfactory separation is obtained. Three parallel experiments are performed for each plasma type. 100 μl of peptide is mixed with 900 μl plasma at t=0 and incubated at 37° C. (drug-plasma mixture conc. 0.1 mg/ml). Samples of 100 μl of the drug-plasma mixture are removed at appropriate intervals and the degradation stopped by precipitation of the sample with 10 μl MeCN:TFA 50:50 v/v. A control plasma sample without the drug treated in the same manner is also taken. The plasma samples are centrifuged for 15 min. at 12,000 rpm (Eppendorf centrifuge) at ambient temperature. The resulting supernatant solution is transferred to 300 μl HP autosamler vials and analyzed by HPLC. HPLC analysis are performed as follows:
# Ac-RYYRWK-NH2 (SEQ ID NO: 1) and Compound 1
# The samples are analysed in the following order: blank, the peptide at 0.1 mg/mL, the plasma without the peptide, the three parallel samples for t=0, the three parallel samples for t=5 min. the three parallel samples for t=60 min. etc. And finally the three parallel samples for t=0 are repeated to make sure that there have been no degradation or other failure during the analyses. The sample concentrations (peak height in mAU) are plotted vs. time and fitted to a function describing a mono exponential decay (Excel). The half-lives of the peptides in plasma are presented in Table 7 as mean (n=3)±standard deviation.
# cirrhotic rats = test: Renal responses in rats with liver cirrhosis induced by common bile duct ligation and sham-operated controls; format: in vivo, rat; details: i.v. bolus 65 nmol/kg
# Method: Rats with liver cirrhosis induced by common bile duct ligation develop avid sodium and water retention and ascites within 2-4 weeks. The disturbed sodium and water balance in cirrhotic rats is in agreement with the pivotal clinical findings of edema and ascites in patients with liver cirrhosis. To examine the efficacy of Compound 1 in an experimental model of an edema-forming state, the diuretic response to an acute i.v. bolus injection of Compound 1 (65 nmol/kg) was evaluated in rats with liver cirrhosis induced by common bile duct ligation 4 weeks earlier. Prior to the experiments, rats were instrumented with chronic catheters in the urinary bladder, and in the femoral vein and artery. Renal responses to Compound 1 were compared with responses in sham-operated control rats. […] Relative changes in urine flow rate, sodium and potassium excretion after i.v. administration of 65 nmol/kg in sham-operated control animals are summarized in FIG. 7.
# Changes in urine flow rate, free water clearance, fractional sodium excretion and fractional potassium excretion after i.v. administration of 65 nmol/kg in sham-operated control and cirrhotic animals are summarized in FIG. 8.
# [3] = tested on: opioid (non-selective opiate, δ, κ, μ), vasopressin (V1a, V1b, V2) and 40 other receptor, uptake and ion channel binding sites; test: Receptor, uptake and ion channel binding panel; details: 0.1, 10 and 1000 nM (opioid, vasopressin); 10 μM (other sites)
# Method: In addition, Compound 1 has been tested in 5 opioid (non-selective opiate, δ, κ, μ, &ORL1), 3 vasopressin (V1a, V1b and V2) receptor binding assays at 0.1, 10, and 1000 nM as well as in 40 different receptor, uptake, and ion channel binding sites (A1, A2, α1, α2, β1, NE uptake, AT1, BZD, B2 (h), CCKA (˜CCK1), D1, D2, ETA(h), GABA, NMDA, H1, M, NK1(h), Y, N, opiate, PCP, 5-HT, 5-HT1B, 5-HT2A, 5-HT uptake, σ, V1) at 10 μM.
# [4] = cirrhotic and sham-operated rats
# hORL1 receptor, sequence (P41146 whole entry): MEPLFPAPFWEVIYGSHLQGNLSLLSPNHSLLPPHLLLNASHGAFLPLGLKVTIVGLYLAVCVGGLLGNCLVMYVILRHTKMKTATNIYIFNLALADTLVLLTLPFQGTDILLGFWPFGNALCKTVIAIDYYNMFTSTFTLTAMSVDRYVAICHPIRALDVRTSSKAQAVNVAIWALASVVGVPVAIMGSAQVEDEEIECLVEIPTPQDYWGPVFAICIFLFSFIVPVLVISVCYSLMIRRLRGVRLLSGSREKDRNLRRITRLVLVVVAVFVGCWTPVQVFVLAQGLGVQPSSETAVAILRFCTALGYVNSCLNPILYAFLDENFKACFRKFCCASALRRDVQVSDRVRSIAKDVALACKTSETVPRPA
substance,measurement,setting,value
"Ac-RYYRWKKKKKKK-NH2 [Compound 1, Ac-RYYRWKKKKKKK-NH2]",relative maximum relative to nociceptin,hORL1 receptor,92%
same,pA2 value,"[1]; Schild equation, antagonism of nociceptin-induced relaxation, n = 4",9.5 (n = 4)
same,fold more potent as an antagonist than Ac-RYYRWK-NH2,"[1]; nociceptin-induced smooth muscle relaxation, MVD assay",about 50 fold
same,potency order for inhibition of electrically-induced contraction of the mouse vas deferens,mouse vas deferens,nociceptin>Compound 1=Compound 2>>Ac-RYYRWK-NH2
same,half-life at 0.1 mg/ml,"[2]; 37° C., mean (n=3) +/− deviation, read-out: T1/2 in min (degradation in human heparinised plasma)",16.2 h
same,half-life at 0.1 mg/ml,[2]; read-out: half life in plasma,> 16 h
same,"renal responses, cirrhotic versus control rats",cirrhotic rats,renal responses were similar in cirrhotic and control rats
same,fractional excretion of sodium and potassium,cirrhotic rats; FIG. 8,decrease in fractional excretion of sodium and potassium
same,urine flow rate,cirrhotic rats; FIG. 8,marked increase in urine flow rate
same,glomerular filtration rate,cirrhotic rats; [4],absence of changes in the glomerular filtration rate
same,urinary excretion of sodium and potassium,cirrhotic rats; [4],decrease in urinary excretion of sodium and potassium
same,binding to other receptors than the ORL1 receptor,[3],none or only weak binding to other receptors than the ORL1 receptor
